Measured values: PMC8023712, “Carboxylesterase Activities and Protein Expression in Rabbit and Pig Ocular Tissues” (Molecular Pharmaceutics, 2021)

How the values were obtained:
[1] = tested on: CES1 (pig ocular tissue homogenates); assay: DME hydrolysis in pig ocular tissue homogenates; settings: for DME hydrolysis rate: 5 μM DME
Description: (§1) The hydrolysis of DME was monitored with slight modifications using the published bioluminescence-based assay[13],[21] where recombinant firefly luciferase enzyme was used to detect the D-luciferin that formed in the reaction mixture. The DME hydrolysis reaction was done in white-coated 96-well plates (Thermo Scientific Sterilin Microtiter Plates). Tissue lysates (5 μg of protein) were preincubated in 0.1 M PBS, pH 6.5. The reaction was initiated by adding DME to a final concentration of 5 μM in a final volume of 200 μL. The hydrolysis of DME was allowed to proceed for 20 min at 37 °C. The formed D-luciferin was quantitated by an injection of 73 μL of the luciferase detection reagent [3 μg of rLuciferase, 50 nmol of ATP, and 50 nmol of MgCl2 in PBS], and the luminescence was measured immediately with a Victor^2 Microplate Reader (560 nm, 1 s). Serial 2-fold dilutions of D-luciferin in 0.1 M PBS, pH 6.5 were used to generate the standard curve (0.156–10 μM).
(§2) Inhibitors were tested at a final concentration range of 0.4–400 μM except for PMSF (0.3–2.5 mM).

[2] = molecular target: T1, CES1 (human liver homogenate) (Homo sapiens, UniProt P23141); assay: DME hydrolysis in human liver homogenate (positive control); assay type: in vitro ADME; settings: 5 μM DME
T1 construct: Homogenates for rat whole eye (covered by the license # ESAVI/8621/04.10.07/2017) and human liver; from tissue; host or cells: human liver homogenate (donated, Oulu University Hospital)
Description: (§3) CES enzymes are localized in the endoplasmic reticulum,[2],[45] but some activity resides in the cytoplasm.[46] Therefore, to prevent possible losses during sample preparation, we used whole tissue homogenates to characterize CES expression and activity in ocular tissues. The homogenization of pooled ocular tissues in 1 × DPBS buffer (3:1 v/w) was done with a Dounce homogenizer (Thomas Scientific; Swedesboro, NJ) with 5–10 strokes, depending on the ocular tissue. Aqueous humor and vitreous were homogenized without adding buffer. Tissue homogenization buffer was supplemented with protease inhibitor cocktail without phenylmethylsulfonyl fluoride (PMSF), a known inhibitor of esterases.[47],[48] After homogenization, all samples were sonicated at 750 W (Vibra-Cell VCX50 and a four-element microtip probe; Sonics & Materials Inc., Newton, CT) using four pulses of 45 s with a cooling interval of 15 s. […]
(§4) The hydrolysis of DME was monitored with slight modifications using the published bioluminescence-based assay[13],[21] where recombinant firefly luciferase enzyme was used to detect the D-luciferin that formed in the reaction mixture. […] The formed D-luciferin was quantitated by an injection of 73 μL of the luciferase detection reagent [3 μg of rLuciferase, 50 nmol of ATP, and 50 nmol of MgCl2 in PBS], and the luminescence was measured immediately with a Victor^2 Microplate Reader (560 nm, 1 s).

[3] = tested on: CES1 (rabbit ocular tissue homogenates); assay: DME hydrolysis in rabbit ocular tissue homogenates; settings: for DME hydrolysis rate: 5 μM DME
Description: as §1, §2

rhCES1 = settings: read-out: Km literature data, DME; cited from earlier work
[4] = tested on: CES1 (rat whole eye homogenate); assay: DME hydrolysis in rat whole eye homogenate (positive control); assay type: in vitro ADME; settings: 5 μM DME
Description: as §3, §4

T1 sequence (P23141 18-567): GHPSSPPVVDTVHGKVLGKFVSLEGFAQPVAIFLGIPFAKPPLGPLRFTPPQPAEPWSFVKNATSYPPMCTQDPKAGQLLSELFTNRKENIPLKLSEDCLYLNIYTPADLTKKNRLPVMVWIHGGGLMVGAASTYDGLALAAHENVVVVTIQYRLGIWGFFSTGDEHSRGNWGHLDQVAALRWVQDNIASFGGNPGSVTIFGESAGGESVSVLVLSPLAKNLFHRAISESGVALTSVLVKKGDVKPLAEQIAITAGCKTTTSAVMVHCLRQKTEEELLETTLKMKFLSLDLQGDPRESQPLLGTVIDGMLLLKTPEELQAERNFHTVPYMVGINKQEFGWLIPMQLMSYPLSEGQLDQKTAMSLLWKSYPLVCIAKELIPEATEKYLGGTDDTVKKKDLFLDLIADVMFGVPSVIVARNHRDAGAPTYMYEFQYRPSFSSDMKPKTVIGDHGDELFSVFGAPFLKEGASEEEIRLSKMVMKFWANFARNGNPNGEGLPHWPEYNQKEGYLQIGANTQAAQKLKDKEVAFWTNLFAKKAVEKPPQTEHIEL

COC(=O)[C@H]1CSC(c2nc3ccc(O)cc3s2)=N1 [DME, D-luciferin methyl ester]
DME hydrolysis rate ([1]; pig RPE, aqueous humor and vitreous): 0.1 to 0.2 nmol/min/mg
DME hydrolysis rate ([1]; pig conjunctiva, cornea and choroid): ≥ 1 nmol/min/mg
DME hydrolysis rate ([1]; pig retina): 0.5 to 1 nmol/min/mg
Km ([1]; read-out: Km (this study), DME hydrolysis in pig cornea): 2.7 ± 1.3 µM
DME hydrolysis rate [2]: 3.6 ± 0.7 nmol/min/mg
DME hydrolysis rate ([3]; rabbit RPE and retina): 0.1 to 0.5 nmol/min/mg
DME hydrolysis rate ([3]; rabbit aqueous humor and vitreous): 0.5 to 1.0 nmol/min/mg
DME hydrolysis rate ([3]; rabbit conjunctiva, cornea and choroid): ≥ 1 nmol/min/mg
Km ([3]; read-out: Km (this study), DME hydrolysis in rabbit cornea): 2.5 ± 0.8 µM
Km (rhCES1): ~5 µM
DME hydrolysis rate [4]: 2.6 ± 0.2 nmol/min/mg
